For experiment [1], the target named is T1, TAS2R1 (Homo sapiens, UniProt Q9NYW7). How it is done: (§1) A functional expression study was carried out as described previously. TAS2R expression vectors (pcDNA5FRT-SST3-TAS2R-HSV and pEAK-10-SST3-TAS2RHSV) were kindly provided by Wolfgang Meyerhof (German Institute of Human Nutrition Postdam-Rehbruecke, Nuthetal, Germany). For all constructs, the N-terminus contained the first 45 amino acids of rat somatostatin 3 (SST3) to improve membrane targeting. A sequence coding for a herpes simplex virus glycoprotein D epitope (HSV-tag) was added at the C-terminus to allow immunocytochemical detection of the receptor [13, 14, 23, 24]. HEK293T cells stably expressing the chimeric G protein α subunit Gα16gust44 [25, 26] were seeded into poly-D-lysine-coated 96-well black plates (0.35 × 10^5 cells/well) in high-glucose DMEM supplemented with 2 mM GlutaMAX, 10% dialysed fetal bovine serum penicillin/streptomycin, and G418 (400 µg/mL), and then placed under a humidified and controlled atmosphere (37 °C and 6.3% CO2) overnight. […]
(§2) Approximately 24–26 h after transfection, cells were loaded for 1 h at 37 °C with Fluo4-AM (2 µM, Molecular Probes), which had been previously mixed with pluronic acid F-127 (0.01%) in C1 buffer (130 mM NaCl, 5 mM KCl, 10 mM HEPES, 2 mM CaCl2, 10 mM pyruvic acid, pH 7.4, 300 mOsm) containing 2.5 mM probenecid (Life Technologies). […] The calcium signal was recorded for 90 s after injection of a range of compounds using a Flexstation 3 fluorometric imaging plate reader (Molecular Devices) at a wavelength of 510 nm after excitation at 488 nm. All substance concentrations were measured in triplicate in at least three independent experiments. […]
(§3) To obtain a dose–response curve, the ratio between the maximum variation in fluorescence after ligand addition and the initial fluorescence before addition (ΔF/F0) was calculated for each well. The fluorescence signals collected for each replicate were averaged for the same substance concentration, and the fluorescence changes in the corresponding mock-transfected cells were subtracted. […]

Experiment [2] deals with T2, TAS2R39 (Homo sapiens, UniProt P59534). The conditions noted are these: vitamin B1 as thiamine hydrochloride, up to M.A.C 1 mM. How it is done: as §1, §2, §3
For a further experiment, the system named is 25 human TAS2Rs. Put plainly: Taste receptor functional assay, panel of 25 human TAS2Rs. The format is cell-based. The conditions noted are these: lowest concentration that could elicit TAS2R activation. How it is done: A functional expression study was carried out as described previously. TAS2R expression vectors (pcDNA5FRT-SST3-TAS2R-HSV and pEAK-10-SST3-TAS2RHSV) were kindly provided by Wolfgang Meyerhof (German Institute of Human Nutrition Postdam-Rehbruecke, Nuthetal, Germany). For all constructs, the N-terminus contained the first 45 amino acids of rat somatostatin 3 (SST3) to improve membrane targeting. A sequence coding for a herpes simplex virus glycoprotein D epitope (HSV-tag) was added at the C-terminus to allow immunocytochemical detection of the receptor [13, 14, 23, 24]. […]
as §2

Experiment [3] has as its system human bitter taste detection (sensory panel). Description: Human bitter taste detection threshold, three-alternative forced choice (3-AFC), BET method. The format is in vivo. As to conditions: 32 panelists, group BET. An excerpt: Based on bibliographic studies, preliminary works performed in the laboratory, and the results of taste receptor functional assays, the following vitamins were included in this study: vitamin B1 (thiamine hydrochloride), vitamin B2 (riboflavin phosphate), vitamin B3 (niacinamide), and vitamin B6 (pyridoxine hydrochloride). These vitamins are present in high quantities in nutritional supplements, safe for humans (except at very high concentrations), and can induce a strong bitter taste. These concentrations were determined according to the toxicity threshold of each compound tested and the maximum daily reference intake. These compounds were prepared in commercial mineral water (Evian®, Evian, France).
The threshold values for bitter taste detection were determined by 32 panelists (18–65 years old, 14 males and 18 females, without sensory perception disorders, food allergies, drug treatments, or heart, lung, or cardiac pathologies) who were recruited from Dijon (France) and the surrounding areas. An ethical committee approved this study (Personal Protection Committee of Rennes—Ouest V, protocol code 2018A01342-53), and all panelists signed an informed consent form. A sensory test called three-alternative forced choice (3-AFC) was used in accordance with the protocol detailed in NF ISO 13301. Before performing the measurement sessions, four training sessions were provided to familiarize the panelists with the bitter taste, test procedure, and signal acquisition software. In this discriminative test, six series consisting of three samples, which were each encoded using randomly generated three-digit numbers, were simultaneously delivered to the panelists. The six 3-AFC presentations contained two blank samples (commercial mineral water, manufacturer: Evian, France) and ascending concentrations of vitamin solution. Before the test, subjects were advised that each presentation consisted of two samples that contained only water and one sample that contained a taste. For each 3-AFC presentation, subjects were asked to take the samples sequentially from left to right. Then, they placed the entirety of each sample solution in their mouths and carefully gargled to ensure that the solution was dispersed throughout the mouth. A sip-and-spit procedure was used; subjects rinsed their mouths with commercial mineral water between each series of tests. Subjects were asked to indicate which of the samples contained the stimulus. If a subject perceived no difference between the three samples, he or she was asked to choose one (forced choice). The sensory tests were conducted in a room devoted to sensory evaluation. For the case of colored samples, black-colored glasses were used, and tastings were performed under red light. […] The aim of this sensory analysis was to determine the bitter taste detection threshold for these vitamins and not an olfactory detection threshold. Therefore, the measurements were conducted using pinched nose clips. The subjects waited one minute between each series and had to thoroughly rinse their mouths. Four repetitions were performed per subject for each vitamin to obtain statistically interpretable results, which represented a total of 288 samples. During the sensory analysis session, a bitterness detection threshold of only two vitamins was used (36 samples) to avoid the ingestion of a high vitamin quantity, which is potentially harmful. The answers from the panelists were collected using software dedicated to sensory analysis (FIZZ acquisition V.2.51 software).
The best estimate threshold (BET) method was used to determine the bitter detection threshold for four vitamins. The individual best-estimated detection threshold (BET) was proposed in ASTM E679-04. ASTM E679-04 is a standard practice for the determination of odor and taste thresholds via a forced-choice ascending concentration series method of limits. […]

For experiment [4], the target named is T1, TAS2R1. The conditions noted are these: cited from earlier work.
The target in experiment [5] is T3, TAS2R7 (Homo sapiens, UniProt Q9NYW3).
T3 sequence (Q9NYW3 1-318): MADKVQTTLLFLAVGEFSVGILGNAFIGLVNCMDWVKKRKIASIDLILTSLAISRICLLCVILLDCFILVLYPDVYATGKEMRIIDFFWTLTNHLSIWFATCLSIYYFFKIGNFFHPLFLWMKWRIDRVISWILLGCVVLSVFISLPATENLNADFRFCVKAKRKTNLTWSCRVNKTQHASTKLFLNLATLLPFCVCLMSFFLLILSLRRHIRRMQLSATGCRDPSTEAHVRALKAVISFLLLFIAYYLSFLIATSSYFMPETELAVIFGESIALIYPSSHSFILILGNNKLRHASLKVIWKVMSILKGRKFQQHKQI
The conditions noted are these: cited from earlier work.

Experiment [6] deals with T2, TAS2R39. As to conditions: cited from earlier work.
In experiment [7] the target is T3, TAS2R7. Put plainly: Calcium mobilization assay, cells transiently expressing TAS2R7. The format is cell-based. Details: expressed in transfected cells; host or cells: HEK293T cells stably expressing Gα16gust44. The conditions noted are these: vitamin B1 as thiamine hydrochloride, up to M.A.C 1 mM. How it is done:
A functional expression study was carried out as described previously. TAS2R expression vectors (pcDNA5FRT-SST3-TAS2R-HSV and pEAK-10-SST3-TAS2RHSV) were kindly provided by Wolfgang Meyerhof (German Institute of Human Nutrition Postdam-Rehbruecke, Nuthetal, Germany). For all constructs, the N-terminus contained the first 45 amino acids of rat somatostatin 3 (SST3) to improve membrane targeting. A sequence coding for a herpes simplex virus glycoprotein D epitope (HSV-tag) was added at the C-terminus to allow immunocytochemical detection of the receptor [13, 14, 23, 24]. HEK293T cells stably expressing the chimeric G protein α subunit Gα16gust44 [25, 26] were seeded into poly-D-lysine-coated 96-well black plates (0.35 × 10^5 cells/well) in high-glucose DMEM supplemented with 2 mM GlutaMAX, 10% dialysed fetal bovine serum penicillin/streptomycin, and G418 (400 µg/mL), and then placed under a humidified and controlled atmosphere (37 °C and 6.3% CO2) overnight. After 24–26 h of incubation, cells were transiently transfected with TAS2R expression plasmids (120 ng/well) using Lipofectamine 2000 reagent (0.4 µL/well) (Thermo Fisher Scientific, Illkirch-Graffenstaden, France).
Approximately 24–26 h after transfection, cells were loaded for 1 h at 37 °C with Fluo4-AM (2 µM, Molecular Probes), which had been previously mixed with pluronic acid F-127 (0.01%) in C1 buffer (130 mM NaCl, 5 mM KCl, 10 mM HEPES, 2 mM CaCl2, 10 mM pyruvic acid, pH 7.4, 300 mOsm) containing 2.5 mM probenecid (Life Technologies). Approximately one hour after loading, the plate was rinsed twice with 100 µL of C1 buffer. The calcium signal was recorded for 90 s after injection of a range of compounds using a Flexstation 3 fluorometric imaging plate reader (Molecular Devices) at a wavelength of 510 nm after excitation at 488 nm. All substance concentrations were measured in triplicate in at least three independent experiments. As cell transfection and substances can interfere with cellular viability and calcium assays, all compounds were tested on mock-transfected cells (cells transfected with empty vectors) on the same plates for all substance concentrations used.
To obtain a dose–response curve, the ratio between the maximum variation in fluorescence after ligand addition and the initial fluorescence before addition (ΔF/F0) was calculated for each well. The fluorescence signals collected for each replicate were averaged for the same substance concentration, and the fluorescence changes in the corresponding mock-transfected cells were subtracted. […] The dose–response data were fitted, and EC50 values were calculated using a four-parameter logistic equation using SigmaPlot software (Systat Software, San Jose, CA, USA). […]

The source of these data is publication PMC9571608, “Detection of Bitterness in Vitamins Is Mediated by the Activation of Bitter Taste Receptors” (Nutrients, 2022).

Several values for one entry are separate records, joined by “and”; a condition that tells them apart may be missing. Equal values may be shown once. Where a name gives a salt, the structure may show the parent alone. Read-outs that look alike come from different tables or passages of the source.

T1 sequence (Q9NYW7 whole entry): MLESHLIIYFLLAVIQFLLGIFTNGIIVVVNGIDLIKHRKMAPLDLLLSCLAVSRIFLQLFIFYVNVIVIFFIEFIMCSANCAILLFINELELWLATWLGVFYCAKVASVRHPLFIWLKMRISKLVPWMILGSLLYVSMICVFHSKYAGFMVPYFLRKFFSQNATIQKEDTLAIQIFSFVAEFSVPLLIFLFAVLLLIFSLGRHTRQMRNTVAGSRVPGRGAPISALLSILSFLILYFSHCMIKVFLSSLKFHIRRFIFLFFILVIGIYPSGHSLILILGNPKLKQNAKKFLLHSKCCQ
T2 sequence (P59534 whole entry): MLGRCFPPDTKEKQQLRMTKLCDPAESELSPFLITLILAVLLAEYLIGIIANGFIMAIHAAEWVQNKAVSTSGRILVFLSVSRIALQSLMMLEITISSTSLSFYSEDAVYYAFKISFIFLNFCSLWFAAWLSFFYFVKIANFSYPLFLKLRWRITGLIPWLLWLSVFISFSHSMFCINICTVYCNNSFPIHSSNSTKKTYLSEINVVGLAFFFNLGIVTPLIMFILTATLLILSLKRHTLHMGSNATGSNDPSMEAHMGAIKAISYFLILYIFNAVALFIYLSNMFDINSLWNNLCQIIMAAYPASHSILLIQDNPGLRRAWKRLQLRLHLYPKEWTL

For the compound `Cc1ncc(C[n+]2csc(CCO)c2C)c(N)n1` [Vitamin B1, thiamine hydrochloride], the TAS2R1 activation entry at TAS2R1 [1] (0.1 mM) and on TAS2R1 [4] was “activation” each time. Further, at TAS2R1 [1] (HEK293T-Gα16gust44 cells, calcium signal, up to M.A.C), the “TAS2R Receptor 1 response” value is “+”. The TAS2R39 activation result on TAS2R39 [2] is recorded as “unable to demonstrate the activation”; at TAS2R39 [6], “activation”. Besides, the “Cellular Bitter Taste Detection Threshold” value with 25 human TAS2Rs is 0.1 mM and 0.10 mM. Besides, the “Human Bitter Taste Detection Threshold” value in experiment [3] (Figure 3, aqueous solution) amounted to 1.1 mM; in experiment [3] (aqueous solution (mineral water), nose clips, listed as B1), 1.10 mM; in experiment [3] (aqueous solution (mineral water), nose clips, listed as vitamin B1) it was 1.1 mM. Also, the TAS2R7 activation result on TAS2R7 [5] is recorded as “activation”; at TAS2R7 [7], “unable to demonstrate the activation”.
